According to a melting point compilation (Tetko et al.; mined from patent text by program, amines drawn as free bases though some values may be those of a salt):

| melting point [°C] | Structure (SMILES) |
| --- | --- |
| 155 | COc1ccc(C2=NN(Cc3ccc([N+](=O)[O-])cc3)C(=O)SC2)cc1OC |
| 93.5 to 97 | COCCc1nc2c(N)nc3ccccc3c2n1CCOCCN(C)C(=O)c1ccccc1 |
| 231 to 234 | Cc1ccc(S(=O)(=O)c2nsc3nc4ccccc4n23)cc1 |
| 185 to 188 | COc1ccccc1N1CCc2c1c1cccc(OC)c1[nH]c2=O |
| 138 to 140 | CCOC(=O)c1c(C(C)C)nc(-c2ccccc2)c(C(C)C)c1-c1ccc(F)cc1 |
| 196 to 198 | Cc1cccc2c1C(=O)c1c-2csc1N |
| 175 to 177 | CC(C)[C@H](NC(=O)[C@H](Cc1ccccc1)NC(=O)OCc1ccccc1)[C@@H](O)c1c(-c2ccccc2)c1=O |
| 231 to 234 | Cc1c(CNCc2ccccc2)[nH]c(=O)c2c1ccc1nc(Nc3c(Cl)cccc3Cl)n(C)c12 |
| 59 to 61 | ONCc1coc(-c2ccccc2)n1 |
| 99.5 to 101 | CC1NC(=O)N(C)N=C1c1ccccc1 (stereo unspecified) |
| 57 to 59 | CC1(C)c2ccccc2[C@H]2Nc3ccccc3[C@H]21 (relative stereo) |
| 246 to 247 | CCc1cn(C2CC(O)C(CNC(=O)c3ccccc3)O2)c(=O)[nH]c1=O (stereo unspecified) |
| 189 to 191 | Nc1cc(C=C2OC(=O)c3ccccc32)ccc1F |
| 210 to 211 | O=C(O)COc1cc(F)c(-c2ccccc2)cc1C(=O)NCc1cccc([N+](=O)[O-])c1 |
| 148 to 150 | CNc1nc(-c2ccc(OCc3ccccc3)cc2)no1 |
| 87 to 92 | CCN=C(NC(=O)OC(C)(C)C)Nc1cc(C(C)c2ccc(-c3ccccc3)c(F)c2)no1 (stereo unspecified) |

| melting point [°C] | Structure (SMILES) |
| --- | --- |
| 202 to 204 | Cc1nnc(N2N=C(c3ccc([N+](=O)[O-])cc3)c3cc4c(cc3C[C@H]2C)OCO4)o1 |
| 143 to 145 | COC(=O)C(=O)c1ccc(OCCOc2ccc(-c3ccccc3)cc2)cc1 |
| 178 to 182 | Cc1ccc(Cc2cnc(NCCN(Cc3ccccc3)c3ccccn3)[nH]c2=O)cn1 |
| 262 | O=C(O)c1c(C(F)(F)F)nc2ccccc2c1O |
| 164 to 166 | O=C1NCCN1Cc1ccc(Cl)cc1 |
| 156 to 157 | CC(=O)Nc1ccc(Br)c(C)n1 |
| 92 to 94 | O=C1c2ccccc2S(=O)(=O)N1CCCCOc1ccccc1 |
| 260 to 262 | Nc1nc2ccccc2c2c1ncn2CC1(O)CCOCC1 |
| 258 to 260 | CC(=O)N1c2ccccc2Sc2c(O)c(O)c3ccccc3c21 |
| 120 to 122 | O=C(O)CCC(=O)OCc1ccc(-c2nn(Cc3ccccc3)c3cc(F)ccc23)o1 |
| 249 to 252 | Cc1n[nH]c2cc(-c3nn(C(C)c4oc5ccccc5c(=O)c4-c4ccccc4)c4ncnc(N)c34)ccc12 (stereo unspecified) |
| 160 to 164 | N#Cc1cccc(CN2C(=O)NC(c3ccccc3)(c3ccccc3)C2=O)c1 |
| 96 | O=[N+]([O-])c1sc(Oc2ccccc2)nc1Cl |
| 282 to 287 | O=S1(=O)c2ccccc2N(c2ccccc2O)c2ccccc21 |
| 201 to 202 | N#Cc1ccc(OCc2cccnc2)cc1OC(C(=O)O)c1ccccc1 (racemic) |

Second part, the molecule before the results:

| Structure (SMILES) | melting point [°C] |
| --- | --- |
| CCCCCCCOc1ccc2c(c1)N(CCCN1CCC(CCO)CC1)c1cccc(S(=O)(=O)N(C)C)c1S2 | 80 |
| N#CN=C(NCc1ccccn1)Nc1cccc(-c2cccc(S(=O)(=O)NC(CC(=O)O)c3ccccc3)c2)c1 (stereo unspecified) | 90 |
| N#CC(C#N)=C(NCC(=O)O)Nc1cc(Cl)cc(Cl)c1 | 103 |
| Cc1c(NC(=O)c2ccc(-c3cc4ccccc4s3)cc2)ccc2cc(CN3CCCC3)cnc12 | 217 to 218 |
| CCOC(=O)c1c(O)c2ccc(C)nc2n(C)c1=O | 143 to 145 |
| Cc1oc(C)c2c(=O)c3c(=O)ccc(=O)c=3c(=O)c12 | > 270 |
| Cc1c(C=C(C#N)C#N)cc(C(C)(C)C)c(O)c1Br | 144 |
| CN(C)CCNC(=O)NCc1ccc2c(c1)-c1[nH]nc(-c3ccsc3)c1C2 | 247 to 249 |
| O=C(O)CCCCCCCCCCCCCCCCCCCO | 86 |
| CCCCCCCCCCCCCCCCCCNC(=O)OCC(CNS(=O)(=O)CCCI)NC(C)=O (stereo unspecified) | 101 to 102 |
| CN1CCN(C(=O)c2cc([N+](=O)[O-])cc3c2OCCO3)CC1 | 218 |
| CCOCC(=O)N(c1c(C)c(C)cc2ccccc12)C(C)C(=O)OC (stereo unspecified) | 96 to 108 |
| N#Cc1c(C(F)(F)F)cc(N(Cc2ccccn2)Cc2ccccn2)cc1C(F)(F)F | 122 |
| Cc1nc(O)c(C(=O)O)cc1Cl | 291 to 294 |
| COC1=C(OC)C(=O)C(CCC(C)CCC(=O)O)=C(C)C1=O (stereo unspecified) | 58 to 61 |
| COc1cccc2nc(-c3ccc(OCCO)c(-c4ccc(S(C)(=O)=O)cc4)n3)[nH]c(=O)c12 | > 300 |
| CCCN(CCC)c1c([N+](=O)[O-])cc(C#N)c(C)c1[N+](=O)[O-] | 97 to 99 |
| CCC(=O)N1CCC(NC(=O)Nc2cccc(Cl)c2)CC1 | 165 to 166 |
| C[C@]1(N2C(=O)c3cccc(OCc4ccc(CN5CCOCC5)cc4)c3C2=O)CCC(=O)NC1=O | 178 to 180 |
| CCc1cn(C2CC(O)C(CN=[N+]=[N-])O2)c(=O)[nH]c1=O (stereo unspecified) | 174 to 177 |
| CC(=O)c1c(-c2ccncc2)[nH]c(-c2ccncc2)c1C | 237 to 240 |
| OCCN1CCC(=C2c3sccc3CCn3ccnc32)CC1 | 155 |

| Structure (SMILES) | melting point [°C] |
| --- | --- |
| CC(C)(C)c1ccc(C(=O)Nc2cn3cc(-n4ccnc4)ccc3n2)cc1 | 289 to 291 |
| Cc1cn(-c2cc(NC(=O)c3ccc(C)c(C#Cc4ccc(NC5CCC5)nn4)c3)cc(C(F)(F)F)c2)cn1 | 223 to 225 |
| CC(=O)C1=C(O)C(C(=O)C=Cc2ccc(O)cc2)C(=O)OC1=O (stereo unspecified) | 194 to 196 |
| CCCc1nc2cc([N+](=O)[O-])ccc2n1Cc1ccc(C(=O)OCC)cc1 | 136 to 138 |
| NC(=NCC(F)(F)F)Nc1ccnc(CSCCN2C(=O)c3ccccc3C2=O)n1 | 167 to 168 |
| Cn1cnc(S(=O)(=O)Nc2ccc(OCCN3CCN(c4nsc5ccccc45)CC3)cc2)c1 | 176 |
| O=C(O)CCCCNC(=O)CCCCC1CCSS1 (stereo unspecified) | 98 to 100 |
| CS(=O)(=O)ON=C(C#N)C(N)=O | 136 to 142 |
| COC(=O)C(C)c1ccc(OCCNC(=O)C2Cc3ccccc3N2S(=O)(=O)c2ccc(-c3cc(C(F)(F)F)ccc3Cl)cc2)cc1 (stereo unspecified) | 55 to 63 |
| Nc1cccc(Cn2c(-c3ccc(-c4cncnc4)cc3)ccc2-c2ccccc2Cl)n1 | 163 to 164 |
| COC1=CCC2=C(CC[C@@H]3[C@@H]2CC[C@@]2(C)[C@H]3CCC23CC(O)CO3)C1 (stereo partly specified) | 152 to 155 |
| COc1cc(OC)cc(\C(C)=C/C=C/C(C)=C/C(=O)Nc2ccc(O)cc2)c1 | 162 to 163 |
| CC(=O)OC1C(N2CCCCC2)CC2C3CCC4CCC(O)CC4(C)C3CCC21C (stereo unspecified) | 239 to 240 |
| COC(=O)c1cc2cc(CBr)ccc2s1 | 108 to 110 |
| CCCCC(=O)Nc1ccc(Cl)c(-n2nc(CCCC)c(Cc3ccc(-c4ccccc4S(=O)(=O)NC(=O)c4ccccc4Cl)cc3F)c2C#N)c1 | > 95 |
| CCOC(=O)c1sc(Cl)nc1C(F)(F)F | 58 to 59 |
| Cc1cccc(N2CCN(c3nnc(Cl)c(C)c3C)CC2)c1C | 194 |
| Nc1ccc2cccc(N3CCNCC3)c2c1 | 184 to 186 |
| C[C@@H](n1cnc2c(Cl)cc(Cl)cc2c1=O)[C@](O)(Cn1cncn1)c1ccc(F)cc1F | 158 to 160 |
| CN(Cc1cc2c(=O)c(C(=O)NCc3ccc(Cl)cc3)cn(C)c2s1)CC(O)c1ccc(O)cc1 (stereo unspecified) | 134 to 143 |
| COCCOC(=O)Nc1cc(N2CC=CCC2)nc(N)n1 | 136 |
| Cn1c(SCC(=O)C23CC4CC(CC(C4)C2)C3)nnc1C1CC1 | 96 to 97.5 |

| Structure (SMILES) | melting point [°C] |
| --- | --- |
| CCS(=O)(=O)Oc1ccc(C(C)(C)C)cc1C(C)(C)C | 76 |
| CCN(CC)c1ccc(N=c2scc(-c3ccc(Cl)c(S(=O)(=O)N(C)C)c3)n2C)cc1 | 184 to 185 |
| O=C(CN1CCC(Cc2ccc(F)cc2)CC1)Nc1ccc2[nH]c(=O)oc2c1 | 228 to 231 |
| CN(C)C(=O)Nc1ccc(Oc2ccc3ccccc3c2)c(C(F)(F)F)c1 | 210 to 211 |
| CNC(=O)Oc1c(OC)c(OC)c(OC(=O)NC)c2ccccc12 | 228 to 229 |
| CCOC(=O)c1nc2c(=O)[nH]c3cc(C(F)(F)F)ccc3n2c1CNc1ccc2c(c1)OCO2 | > 250 |
| CS(=O)(=O)N1CCC(Nc2nc(Nc3ccc(F)c(CN4CCOCC4)c3)nc(OCC(F)(F)F)n2)CC1 | 96 to 98 |
| CCCCCCCCCCCCCCCCCCN(C)P1OCC2(CO1)COP(N(C)CCCCCCCCCCCCCCCCCC)OC2 (stereo unspecified) | 70 to 72 |
| COc1ccc(-c2ccc(C(C)=O)cc2)cc1C=O | 136 to 138 |
| CNC(=O)C1CCN(Cc2cnc3cc(NC(=O)c4ccc(-c5ccc(F)cc5)cc4)c(C)cc3c2)CC1 | 257 |
| CC1(C)CCC(C)(C)c2cc(C#Cc3ccc(/C=C/C(=O)O)cc3)ccc21 | 256 to 258 |
| CN1CCC(=C2c3cc(Cl)ccc3CC(=O)c3sccc32)CC1 | 168 to 169 |
| Cc1ccc(CN2Cc3cncn3C(c3ccc(C#N)cc3)C2=O)cc1 (stereo unspecified) | 168 to 170 |
| CCCCCCCCCCCCCCOc1ccc(COC(=O)N(Cc2ccccn2)C(C)=O)cc1 | 52 to 53 |
| C#CCn1c(=O)c2c(nc(C#Cc3ccc(OC)c(OC)c3)n2C)n(CC)c1=O | 222 |
| NC(=O)N(Cc1ccc(C(F)(F)F)c(N2CCCCC2)c1)c1cccc2c1CC(O)CC2 (stereo unspecified) | 163 |
| CCCc1cc(=O)oc2c(C=O)c(O)c3c(c12)OC(C)(C)C=C3 | 116 to 117 |
| Cc1cccc2c(Nc3cc(CO)cc(NC(=O)Nc4ccc(N(CCCl)CCCl)cc4)c3)c3ccccc3nc12 | 251 to 252 |
| CC(C(=O)O)c1ccc(N2CC3=C(CC=CC3)C2=O)cc1 (stereo unspecified) | 220 to 222 |
| COC(=O)Cn1c(C(=O)N(CCC2CCCCC2)c2nc(-c3cc(OC)c(C)cc3OC)cs2)cc2ccccc21 | 144 to 146 |
| CCC(=O)c1c(-c2cc(C)c(O)c(C)c2)c(C)n2c1-c1cc(OC)c(OC)cc1CC2 | 188 to 190 |
